For orientation: IC50 means the concentration needed to halve the response being measured.

Series [1] has as its system amastigote of L. (L.) amazonensis. Also on record: method as in doi:10.1016/j.poly.2014.05.004. To be noted: cited from earlier work.
Series [2] has as its system lesions caused by L. (V.) guyanensis. The experiment in a line: Topical treatment of lesions in hamsters infected with L. (V.) guyanensis. The series is classed as in vivo, Mesocricetus auratus. The protocol:
(§1) To prepare the Carbopol®-based gel, Nipagin® was mixed with distilled water until its total solubilization, and then Carpobol® was added. Then, the metal complex was added and incorporated separately in each gel, and triethonolamine was added gradually until a thick gel was obtained. Finally, the metal complexes were mixed at a concentration of 3 mg/L, a value defined for comparative purposes with the positive control of the study (Glucantime®) administered at the same concentration via the intramuscular (IM) route.
(§2) For the assays, 72 adult male aged 60-days golden hamsters (Mesocricetus auratus) that were free of pathogens and had been previously obtained from the Central Vivarium at the INPA (CEUA 060/2018) were used [Appendix C]. The animals were housed in stainless steel cages in air-conditioned rooms, with controlled light, temperature (22-25 °C), humidity (50-60%), and food and water ad libitum.
Animals were separated into six groups. Five groups were infected with 100 µL of a solution containing 10[6] promastigote/mL of Leishmania spp. The first experiment involved 36 animals infected with L. (L.) amazonensis, and the second experiment involved 36 animals infected with L. (V.) guyanensis. Animals were divided into the following groups: […]
To evaluate the course of infection, the total volume of the lesion (length, width, and height) was measured using a caliper (Zaas® Precision). […]
For parasitological studies, a sample of the tissue from the lesion region lesion in each animal was sectioned, and the fragment was printed on a glass slide and stained using the Panoptic kit (Laborclin®). The slides were evaluated using optical microscopy, 30 fields were counted, and the analysis and quantification of infected and uninfected cells and the quantity of internalized amastigote forms were performed. […] After this period, an aliquot containing the fragments was evaluated using optical microscopy for parasitological analysis. […]

Series [3] has as its system amastigote forms of L. (V.) guyanensis in murine peritoneal macrophages. The series can be described thus: Assay with amastigote forms of L. (V.) guyanensis in peritoneal macrophages. The series is classed as cell-based, Leishmania (Viannia) guyanensis. The protocol:
(§3) The assay against amastigote forms was performed using murine peritoneal macrophages and human monocytes, obtained as described for the cytotoxicity assay. The cells were incubated for 48 h in a 24 well-plate containing glass coverslips with the RPMI medium, and cell volume adjusted to 10[5] macrophages/monocyte/mL.
(§4) The adhered cells were infected with promastigote forms of Leishmania spp. and left for 2 h. The test substances were then added at the concentrations used in previous trials and exposed for 24, 48, and 72 h. Coverslips were stained using a Panoptic kit (Laborclin® - Laborclin Products for Laboratories Ltd, Pinhais, Brazil) and quantified using optical microscopy at 400 × magnification. A total of 100 cells were quantified to evaluate the number of infected and uninfected macrophages and internalized amastigotes. Three independent assays were performed on peritoneal macrophages and human monocytes.
(§5) The SI is the relationship between the cytotoxic activity of the tested compound and its anti-leishmanial activity. In our study, the SI was calculated from the ratio of cytotoxicity for macrophages/monocytes with a cytotoxic concentration at 50% (CC50) and action against amastigote forms in each of these cell types with an inhibitory concentration at 50% (IC50), using the equation: SI = CC50IC50-AMA^3
(§6) Statistical analysis was performed using linear regression to calculate IC50 using GraphPad Prism® (GraphPad Software Inc. version 6.0, for Windows). Results are expressed as mean ± standard deviation.

Series [4] concerns amastigote forms of L. (V.) guyanensis in human monocytes. The series can be described thus: Assay with amastigote forms of L. (V.) guyanensis in human monocytes. The series is classed as cell-based, Leishmania (Viannia) guyanensis. The protocol:
as §3, §4, §6

For series [5], the system named is promastigote forms of Leishmania (Leishmania) amazonensis (IM5584). The experiment in a line: Assay with promastigote forms, L. (L.) amazonensis. The series is classed as cell-based. The protocol:
(§7) We used the species L. (Leishmania) amazonensis [L. (L.) amazonensis] (MHOM/BR/2009/IM5584) and L. (Viannia) guyanensis [L. (V.) guyanensis] (MHOM/BR/1975/M4147), which had been cultivated in the biphasic medium Novy - MacNeal - Nicolle (NNN) and amplified in the RPMI liquid medium (Himedia®). The culture was centrifuged for 15 min at 4,400 g. Parasites were adjusted to a concentration of 10[4] parasites/mL.
(§8) The parasites were used at a concentration of 10[4] parasites/mL. The assay was performed in 96-well plates (KASVI®), and then the same procedure and concentrations of the substances were used in the cytotoxicity assay, with negative control and culture medium containing parasites. The activity of the complexes was evaluated at 24, 48, and 72 h intervals using a Neubauer chamber. In addition, cellular viability was evaluated using the assay. Three independent tests were conducted.
as §6

Series [6] relates to human monocytes. The experiment in a line: Cytotoxicity (MTT) in human monocytes. Type of series: cell-based. The protocol: Human monocytes were obtained after approval from the Research Ethics Committee (CEP-UFAM: 29406319.2.0000.5020) (Appendix B). Blood samples were collected from all patients. Phosphate-buffered saline (PBS) 1 x was added, and the blood/PBS was added gently on Ficoll-Histopaque (Sigma-Aldrich®) [density of 1077] and centrifuged for 30 min/200 g[7]. Peripheral blood mononuclear cells were collected, added PBS 1 x, and centrifuged for 3 min at 400 × g. The cell concentration was adjusted to 10[4] monocytes/mL[7].
(§9) The assay was performed in 96-well plates (KASVI®). The RPMI medium was added to the cells at a concentration of 10[4] cells/mL/well. The metal complexes were added at concentrations of […] in triplicate as […], and Glucantime® was used at the same concentration as the metal complexes. The negative controls used DMSO at 4 concentrations (2%, 1%, 0.50%, and 0.25%), and the RMPI medium containing the cells remained exposed to the substance for up to 24, 48, and 72 h.
(§10) After each period, a solution of [3-(4,5-dimethylthiazol-2yl) -2,5-diphenyltetrazolium] bromide (MTT) was added to the wells at (concentration of 0.5 mg/mL). The plates were incubated for 4 h at 37 °C and then subjected to spectrophotometry (Biotek®) at an absorbance of 590 nm. Three independent trials were performed with peritoneal macrophages and human monocytes.

Series [7] relates to murine peritoneal macrophages. The series can be described thus: Cytotoxicity (MTT) in murine peritoneal macrophages. The series is classed as cell-based, Balb/c (Mus musculus) mice. The protocol:
Peritoneal macrophages were extracted from Balb/c (Mus musculus) mice, from colonies of the Central Vivarium at the INPA, with the approval of the Ethics Committee on the Use of Animals (CEUA - INPA 023/2020; Appendix A). The animals were anesthetized with ketamine hydrochloride (Dopalen®), and a ventral incision was made. The RPMI medium was introduced; and the abdominal massage was performed for macrophage activation, followed by aspiration, and centrifuged at 1,500 g for 10 min. Cell concentration was adjusted to 10[4] macrophages/mL[6].
as §9, §10

The test system of series [8] is amastigote forms of L. (L.) amazonensis internalized in murine peritoneal macrophages. The experiment in a line: Assay with amastigote forms of L. (L.) amazonensis in peritoneal macrophages. The series is classed as cell-based, Leishmania (Leishmania) amazonensis. The protocol: as §3, §4, §5, §6
Series [9] deals with lesions caused by L. (L.) amazonensis. The experiment in a line: Topical treatment of lesions in hamsters infected with L. (L.) amazonensis. The series is classed as in vivo, Mesocricetus auratus. The protocol:
as §1, §2
Animals were separated into six groups. Five groups were infected with 100 µL of a solution containing 10[6] promastigote/mL of Leishmania spp. The first experiment involved 36 animals infected with L. (L.) amazonensis, and the second experiment involved 36 animals infected with L. (V.) guyanensis. Animals were divided into the following groups:
• Group I: Uninfected control • Group II: Untreated, infected control • Group III: Infected and treated with Glucantime® (IM) • Group IV: Infected and treated with Ag1 (lesions treated topically once a day) • Group V: Infected and treated with Ag2 (lesions treated topically once a day) • Group VI: Infected and treated with gel without the addition of complexes (lesions treated topically once a day)
To evaluate the course of infection, the total volume of the lesion (length, width, and height) was measured using a caliper (Zaas® Precision). Animals were weighed once per week. After 30 days of treatment, the animals were euthanized using ketamine hydrochloride (Dopalen®) combined with xylazine hydrochloride (Anasedan®) following the Animal Use Ethics Commission (CEUA) protocols (060/2018).
For parasitological studies, a sample of the tissue from the lesion region lesion in each animal was sectioned, and the fragment was printed on a glass slide and stained using the Panoptic kit (Laborclin®). The slides were evaluated using optical microscopy, 30 fields were counted, and the analysis and quantification of infected and uninfected cells and the quantity of internalized amastigote forms were performed. Fragments of each animal’s skin lesions and liver were also sectioned and cultured in an NNN medium for 7 days. After this period, an aliquot containing the fragments was evaluated using optical microscopy for parasitological analysis.
For the in vivo results, we used two-way analysis of variance to evaluate the statistical significance between the groups, followed by the Tukey test to compare the means of the groups at a 95% confidence interval.

Series [10] deals with promastigote forms of Leishmania (Viannia) guyanensis (M4147). The series can be described thus: Assay with promastigote forms, L. (V.) guyanensis. Type of series: cell-based. The protocol:
as §7, §8, §6

Series [11] relates to amastigote forms of L. (L.) amazonensis in human monocytes. The series can be described thus: Assay with amastigote forms of L. (L.) amazonensis in human monocytes. Type of series: cell-based, Leishmania (Leishmania) amazonensis. The protocol:
as §3, §4, §6

Converted amounts (≈) assume the structure as drawn. Read-outs that look alike come from different tables or passages of the source.

`C[C@@H]1[C@H](O)[C@@H](C)/C=C/C=C/C=C/C=C/C=C/C=C/C=C/[C@H](O[C@@H]2O[C@H](C)[C@@H](O)[C@H](N)[C@@H]2O)C[C@@H]2O[C@](O)(C[C@@H](O)C[C@@H](O)[C@H](O)CC[C@@H](O)C[C@@H](O)CC(=O)O[C@H]1C)C[C@H](O)[C@H]2C(=O)O` [amphotericin B®, amphotericin B]: in [1], the IC50 amastigote was 1.20 µg/mL (≈ 1.3 µM).

As to `C1N2CN3CN1CP(C2)C3.C1N2CN3CN1CP(C2)C3.C1N2CN3CN1CP(C2)C3.C1N2CN3CN1CP(C2)C3.F[B-](F)(F)F.[Ag+]` [Ag1, [Ag (PTA)4]BF4], the “Number of amastigotes internalized in lesion” value in series [2] (compared to the treated groups) was “highest number”. Moreover, in series [2] (statistical difference compared to Glucantime), the “Number of infected cells in lesion fragments” value is listed as “largest number of infected cells”. The IC50 in series [3] (24 h) turned out to be 90.51 ± 0.7 µM; in series [3] (48 h), 105.1 ± 0.42 µM; in series [3] (72 h) it was 116 ± 1.58 µM; in [4] (24 h), 109.2 ± 0.63 µM; in series [4] (48 h) it was 186.6 ± 0.57 µM; in series [4] (72 h) it was 270.3 ± 0.25 µM. Further, the IC50 is less than 10 µM in series [5] (L. (L.) amazonensis (IM5584), 24 h, read-out: IC50 values, promastigote forms); 69.2 ± 3.03 µM in [5] (L. (L.) amazonensis (IM5584), 48 h, read-out: IC50 values, promastigote forms); 104 ± 1.47 µM in [5] (L. (L.) amazonensis (IM5584), 72 h, read-out: IC50 values, promastigote forms); less than 10 µM in series [5] (L. (L.) amazonensis, read-out: Activity class according to IC50, promastigotes); 6.09 ± 0.47 µM in series [8] (24 h); 14.9 ± 0.41 µM in [8] (48 h). For the same molecule, the IC50 in series [8] (72 h) stood at 23.8 ± 1.51 µM; in [10] (24 h), 75.14 ± 0.53 µM; in [10] (48 h), 130 ± 2.94 µM; in [10] (72 h), 228.9 ± 1.26 µM; in [11] (24 h), 23.3 ± 1.04 µM; in [11] (48 h) it was 69.04 ± 0.34 µM. Also, in series [11] (72 h), the IC50 is 150.7 ± 0.91 µM. The “Cytotoxicity (in words)” value in series [6] and in series [7] was “toxic” throughout. Further, the “Infected cells / internalized amastigotes in lesion fragments” value in series [9] (after 30 days of treatment) is reported as “greater number of internalized amastigotes”. Also, the “Lesion volume (in words)” value in series [9] (gel topically 0.3 mg/day once a day, Glucantime IM 3 mg (Sb5)/kg/day, 30 days, Ag2 effect after the 14th day) is listed as “evolution of lesions”.

The values are drawn from publication PMC9009886, “In vitro and in vivo Anti-leishmanial Potential of [Ag (PTA) 4 ]BF 4 and [Ag(HBPz 3 )(PPh 3 )] Silver Complexes” (Revista da Sociedade Brasileira de Medicina Tropical, 2022).
